From PMC11435058, “Synthesis of New Thiazole-Privileged Chalcones as Tubulin Polymerization Inhibitors with Potential Anticancer Activities” (Pharmaceuticals, 2024)
Where two headings read alike, the source gives them in different places.

Legend:
[1] = tested on: SF-539; assay: NCI-60 anticancer screen (SRB; single dose and five doses); conditions: Homo sapiens
[2] = tested on: MCF7; assay: as above; conditions: Homo sapiens
[3] = tested on: DU-145; assay: as above; conditions: Homo sapiens
[4] = tested on: A498; assay: as above; conditions: Homo sapiens
[5] = tested on: COLO 205; assay: as above; conditions: Homo sapiens
[6] = tested on: CCRF-CEM; assay: NCI-60 anticancer screen (SRB; single dose 10 μM and five doses); conditions: Homo sapiens
[7] = tested on: SNB-19; assay: cells; conditions: Homo sapiens
[8] = tested on: 60 human tumor cell lines panel; assay: NCI-60 anticancer screen, whole panel (means and ranges over the cell lines); assay type: cell-based; conditions: Homo sapiens, 48 h, dose of 10 μM
[9] = tested on: SK-MEL-5; assay: NCI-60 anticancer screen (SRB; single dose and five doses); conditions: Homo sapiens
[10] = tested on: MALME-3M; assay: as above; conditions: Homo sapiens
[11] = tested on: M14; assay: as above; conditions: Homo sapiens
[12] = tested on: MDA-MB-231/ATCC; assay: as above; conditions: Homo sapiens
[13] = tested on: PC-3; assay: as above; conditions: Homo sapiens
[14] = tested on: SR; assay: as above; conditions: Homo sapiens
[15] = tested on: MOLT-4; assay: as above; conditions: Homo sapiens

In the case of `COc1cc(/C=C/C(=O)c2sc(=S)[nH]c2C)cc(OC)c1OC` [2p, (E)-1-(4-Methyl-2-Thioxo-2,3-Dihydrothiazol-5-yl)-3-(3,4,5-Trimethoxyphenyl)Prop-2-En-1-One], the GI50 ([1]; SF-539) is reported as 2.19 µM, the IC50 ([1]; SF-539) is reported as 4.47 µM and the activity at 10 µM ([1]; SF-539, 48 h, read-out: Growth Percentage) is reported as -13.9%. For the same molecule, the IC (TGI) ([1]; SF-539, read-out: TGI) was 5.5 µM, the GI50 ([2]; MCF7) was 3.02 µM and the IC50 ([2]; MCF7) was 4.27 µM. It also gave an activity at 10 µM ([2]; MCF7, 48 h, read-out: Growth Percentage) of 9.35%, a CC50 ([2]; MCF7, read-out: LC50) of 45.7 µM and an IC (TGI) ([2]; MCF7, read-out: TGI) of 10.7 µM. The GI50 ([3]; DU-145) was 3.24 µM, the IC50 ([3]; DU-145) was 5.75 µM and the activity at 10 µM ([3]; DU-145, 48 h, read-out: Growth Percentage) was 12.9%. For the same molecule, the CC50 ([3]; DU-145, read-out: LC50) was 69.2 µM, the IC (TGI) ([3]; DU-145, read-out: TGI) was 15.5 µM and the GI50 ([4]; A498) was 11.5 µM. The IC50 ([4]; A498) was 43.6 µM, the activity at 10 µM ([4]; A498, 48 h, read-out: Growth Percentage, A498, dose of 10 μM) was 96.5% and the CC50 ([4]; A498, read-out: LC50) was > 100 µM. It also gave an IC (TGI) ([4]; A498, read-out: TGI) of 34.7 µM, a GI50 ([5]; COLO 205) of 16.2 µM and an IC50 ([5]; COLO 205) of 28.8 µM. The activity at 10 µM ([5]; COLO 205, 48 h, read-out: Growth Percentage) was 81.7%, the CC50 ([5]; COLO 205, read-out: LC50) was 70.8 µM and the IC (TGI) ([5]; COLO 205, read-out: TGI) was 33.9 µM. The GI50 [6] was 2.45 µM, the activity at 10 µM ([6]; 48 h, read-out: Growth Percentage) was 4.92% and the IC50 ([6]; five-dose, Leukemia CCRF-CEM) was 3.55 µM. For the same molecule, the IC (TGI) ([6]; read-out: TGI) was 8.71 µM, the GI50 ([7]; SNB-19) was 5.01 µM and the IC50 ([7]; SNB-19) was 13.2 µM. It also gave an activity at 10 µM ([7]; SNB-19, 48 h, read-out: Growth Percentage) of 19.6%, a CC50 ([7]; SNB-19, read-out: LC50) of 43.6 µM and an IC (TGI) ([7]; SNB-19, read-out: TGI) of 17.8 µM. For the same molecule, the activity at 10 µM ([8]; mean over the tested cell lines, read-out: Mean growth percentage) was 14.9%, the activity at 10 µM ([8]; range over the cell lines, read-out: growth percentages against most of the tested cells (lowest to highest)) was -64.6 to 96.5% and the GI50 ([9]; SK-MEL-5) was 1.58 µM. The IC50 ([9]; SK-MEL-5) was 3.31 µM, the activity at 10 µM ([9]; SK-MEL-5, 48 h, read-out: Growth Percentage) was -64.6% and the CC50 ([9]; SK-MEL-5, read-out: LC50) was 10 µM. It also gave an IC (TGI) ([9]; SK-MEL-5, read-out: TGI) of 3.98 µM, a GI50 [10] of 5.75 µM and an IC50 [10] of 17.8 µM. The CC50 ([10]; read-out: LC50) was 55 µM, the IC (TGI) ([10]; read-out: TGI) was 20.4 µM and the GI50 ([11]; M14) was 3.24 µM. The IC50 ([11]; M14) was 5.13 µM, the activity at 10 µM ([11]; M14, 48 h, read-out: Growth Percentage) was 15.4% and the IC (TGI) ([11]; M14, read-out: TGI) was 13.2 µM. It also gave a GI50 ([12]; MDA-MB-231) of 3.24 µM, an IC50 ([12]; MDA-MB-231) of 10 µM and an activity at 10 µM ([12]; MDA-MB-231, 48 h, read-out: Growth Percentage) of 2.51%. The CC50 ([12]; MDA-MB-231, read-out: LC50) was > 100 µM, the IC (TGI) ([12]; MDA-MB-231, read-out: TGI) was 13.2 µM and the GI50 ([13]; PC-3) was 5.01 µM. For the same molecule, the IC50 ([13]; PC-3) was 8.91 µM, the activity at 10 µM ([13]; PC-3, 48 h, read-out: Growth Percentage) was 35.7% and the CC50 ([13]; PC-3, read-out: LC50) was > 100 µM. The IC (TGI) ([13]; PC-3, read-out: TGI) was 41.7 µM, the GI50 [14] was 2.34 µM and the IC50 [14] was 3.8 µM. The CC50 ([14]; read-out: LC50) was > 100 µM, the IC (TGI) ([14]; read-out: TGI) was 16.2 µM and the GI50 ([15]; MOLT-4) was 2.88 µM. The IC50 ([15]; MOLT-4) was 4.17 µM, the activity at 10 µM ([15]; MOLT-4, 48 h, read-out: Growth Percentage) was 9.11% and the CC50 ([15]; MOLT-4, read-out: LC50) was > 100 µM. For the same molecule, the IC (TGI) ([15]; MOLT-4, read-out: TGI) was 22.9 µM.
